System: MyoD and myogenin
Assay: Expression of MyoD and myogenin and differentiation of myoblasts into myotubes
Format: cell-based, human
Experimental: FIG. 1. Expression of MyoD (A) and myogenin (B) during differentiation of myoblasts. During the differentiation process, cells were harvested on day-2 until day 8. Some cell cultures were treated with ±1 μM T0901317 from day 2 until day 6. Equal amount of total RNA from each donor (n=4) were pooled, reversely transcribed and analyzed by Real-Time RT-PCR. Expression of MyoD and myogenin was normalized to GAPDH. RNA isolation and analysis of gene expression by RT-PCR. Myotubes were washed, trypsinized and pelleted before total RNA was isolated by RNeasy Mini kit (Qiagen Sciences, Oslo, Norway) or Agilent Total RNA Mini kit (Matrix, Oslo, Norway) according to the suppliers total RNA isolation protocol. […] DNA expression was determined by SYBR® Green (Applied Biosystems), and primers [36B4 (Acc#M17885), ACSL1 (Acc#NM-001995), ABCA1 (Acc#AF165281), CD36 (Acc#L06850), FAS (Acc#U26644), GAPDH (Acc#J104038/M33197, GLUT4 (Acc#M20747), LXRα (Acc#U22662), LXR (Acc#U07132), Myogenin (Acc#X17651), MyoD (Acc#BC064493), PPARα (Acc#L02932), PPARδ (Acc#BC002715), PPARγ (Acc#L40904), SCD-1 (Acc#AB032261), SREBP1c (Acc#U00968)], GLUT1, (Acc#03195), GLUT3 ([…]) were designed using Primer Express® (Applied Biosystems). Each target gene was quantified in triplicates and carried out in a 25 μl reaction volume according to the suppliers protocol. […]

Question: `O=S(=O)(c1ccccc1)N(CC(F)(F)F)c1ccc(C(O)(C(F)(F)F)C(F)(F)F)cc1` [Example T0901317] was tested. Which “expression levels of MyoD and myogenin” value (1 μM from day 2 until day 6) did it give?
Answer: did not seem to interfere

Question: What about the “differentiation of myoblasts into multinucleated myotubes by light microscopy” value (with and without LXR agonist treatment, data not shown) of the same compound?
Answer: normal differentiation
